Measured values published in ChEMBL document CHEMBL4368892, “Isatin and its derivatives: a survey of recent syntheses, reactions, and applications” (Medchemcomm, 2019).

How the values were obtained:
LoVo = test: Antiproliferative activity against human LoVo cells by WST-1 assay; type: functional, cell-based
Histone deacetylase = test: Inhibition of HDAC (unknown origin); type: protein assay, Homo sapiens

| Compound | IC50 (LoVo) [µM] | IC50 (Histone deacetylase) [µM] |
| --- | --- | --- |
| Cc1ccc2nc(SCC(=O)N/N=C3\C(=O)Nc4ccccc43)n(-c3ccccc3)c(=O)c2c1 | 9.91 to 17.9 | – |
| O=C(CSc1nc2ccccc2c(=O)n1Cc1ccccc1)N/N=C1\C(=O)Nc2ccc([N+](=O)[O-])cc21 | 9.91 to 17.9 | – |
| O=C(CSc1nc2ccccc2c(=O)n1-c1ccccc1)N/N=C1\C(=O)Nc2ccc(Cl)cc21 | 9.91 to 17.9 | – |
| Cc1ccc2nc(SCC(=O)N/N=C3\C(=O)Nc4ccc(Cl)cc43)n(-c3ccccc3)c(=O)c2c1 | 9.91 to 17.9 | – |
| O=C(CSc1nc2ccccc2c(=O)n1CCc1ccccc1)N/N=C1\C(=O)Nc2ccc(F)cc21 | 9.91 to 17.9 | – |
| O=C(CSc1nc2ccccc2c(=O)n1-c1ccccc1)N/N=C1\C(=O)Nc2ccc([N+](=O)[O-])cc21 | 9.91 to 17.9 | – |
| Cc1ccc2nc(SCC(=O)N/N=C3\C(=O)Nc4ccc([N+](=O)[O-])cc43)n(-c3ccccc3)c(=O)c2c1 | 9.91 to 17.9 | – |
| Cc1ccc2nc(SCC(=O)N/N=C3\C(=O)Nc4ccc(F)cc43)n(-c3ccccc3)c(=O)c2c1 | 9.91 to 17.9 | – |
| Cc1ccc2nc(SCC(=O)N/N=C3\C(=O)Nc4ccc(Cl)cc43)n(Cc3ccccc3)c(=O)c2c1 | 9.91 to 17.9 | – |
| O=C(CNC(=S)N/N=C1\C(=O)Nc2ccc(Cl)cc21)NO | – | 0.97 |
| O=C(CSc1nc2ccccc2c(=O)n1CCc1ccccc1)N/N=C1\C(=O)Nc2ccc(Cl)cc21 | 9.91 to 17.9 | – |
| O=C(CSc1nc2ccccc2c(=O)n1CCc1ccccc1)N/N=C1\C(=O)Nc2ccccc21 | 9.91 to 17.9 | – |
| Cc1ccc2nc(SCC(=O)N/N=C3\C(=O)Nc4ccccc43)n(Cc3ccccc3)c(=O)c2c1 | 9.91 to 17.9 | – |
| Cc1ccc2nc(SCC(=O)N/N=C3\C(=O)Nc4ccc(F)cc43)n(Cc3ccccc3)c(=O)c2c1 | 9.91 to 17.9 | – |
| Cc1ccc2nc(SCC(=O)N/N=C3\C(=O)Nc4ccc([N+](=O)[O-])cc43)n(Cc3ccccc3)c(=O)c2c1 | 9.91 to 17.9 | – |
